For one assay, the system named is Enterococcus faecium. Nature of the assay: Potency index, ratio of Ac-GF-Tic-Oic-GK-Tic-Oic-GF-Tic-Oic-GK-Tic-KKKK-CONH2 MIC to compound MIC for Enterococcus faecium. Format: functional.
For assay [1], the system named is Klebsiella aerogenes. Nature of the assay: Antibacterial activity against carbapenem-resistant Enterobacter aerogenes NCDC819-56 ATCC 13048 by two fold serial dilution method. Format: functional.
The subject of assay [2] is Acinetobacter baumannii. Nature of the assay: Antibacterial activity against Acinetobacter baumannii B5W71 ATCC 15149 by two fold serial dilution method. It is filed as functional.
Assay [3] is described as follows: (§1) Antibacterial activity against Salmonella enterica LT2 Typhimurium ATCC 15277 by two fold serial dilution method. It is filed as functional.
In assay [4] the test system is Pseudomonas aeruginosa. Nature of the assay: Antibacterial activity against Pseudomonas aeruginosa Boston 41501 ATCC 27853 by two fold serial dilution method. Format: functional.
A short description of assay [5]: Antibacterial activity against carbapenem-resistant Klebsiella pneumoniae K6 ATCC 700603 by two fold serial dilution method. Format: functional, Klebsiella pneumoniae 700603.
The test system of a further assay is Enterococcus faecalis. Nature of the assay: Antibacterial activity against Enterococcus faecalis Portland ATCC 29212 by two fold serial dilution method. Format: functional. The conditions noted are these: ATCC 29212 Portland.
The test system of assay [6] is Staphylococcus aureus. Nature of the assay: Antibacterial activity against methicillin-resistant Staphylococcus aureus USA 300 NRS 384 by two fold serial dilution method. Format: functional.
Assay [7] is described as follows: Antibacterial activity against Clostridium difficile VIP 10463 ATCC 43255 by two fold serial dilution method. Particulars: Clostridioides difficile. Format: functional, Clostridium difficile ATCC 43255.
Assay [8] deals with Staphylococcus aureus. Nature of the assay: Antibacterial activity against Staphylococcus aureus Seattle 1945 ATCC 25923 by two fold serial dilution method. Format: functional.
Another assay has as its system Streptococcus pneumoniae. Nature of the assay: Antibacterial activity against Streptococcus pneumoniae 262 ATCC 49619 by two fold serial dilution method. It is filed as functional.
The next assay concerns Neisseria gonorrhoeae. Nature of the assay: Antibacterial activity against Neisseria gonorrhoeae F-18 ATCC 49226 by two fold serial dilution method. It is filed as functional.
A short description of assay [9]: Antibacterial activity against Bacillus anthracis Ames NR-3838 by two fold serial dilution method. Format: functional, Bacillus anthracis str. Ames.
The nature of assay [10]: Antibacterial activity against Francisella tularensis SCHU S4 NR-643 by two fold serial dilution method. Format: functional.
A short description of assay [11]: Antibacterial activity against Yersinia pestis CO92 NR641 by two fold serial dilution method. Format: functional.
In assay [12] the test system is Burkholderia pseudomallei. Nature of the assay: Antibacterial activity against Burkholderia pseudomallei AHS 1 NCTC 8016 by two fold serial dilution method. Format: functional.
Assay [13] concerns Mycobacterium tuberculosis. Nature of the assay: Antibacterial activity against Mycobacterium tuberculosis H37Ra ATCC 2517 by two fold serial dilution method. Format: functional.
A further assay deals with CFPAC-1. Nature of the assay: Antiproliferative activity against human CFPAC-1 cells after 72 hrs by Celltiter-Glo luminescent cell viability assay. It is filed as functional, cell-based. Particulars: CFPAC-1, 72 h. (In general: ATP-based viability assays read luminescence as a measure of living cells.)
The subject of another assay is MCF7. Nature of the assay: Antiproliferative activity against human MCF7 cells after 72 hrs by Celltiter-Glo luminescent cell viability assay. Format: functional, cell-based. The conditions noted are these: MCF7, 72 h.
Assay [14] is described as follows: Antiproliferative activity against human IGROV1 cells after 72 hrs by Celltiter-Glo luminescent cell viability assay. The conditions noted are these: IGROV-1, 72 h. Format: functional, cell-based.
Assay [15] is described as follows: Antiproliferative activity against human COLO205 cells after 72 hrs by Celltiter-Glo luminescent cell viability assay. Format: functional, cell-based. Particulars: COLO 205, 72 h.
Assay [16] in a line: Antiproliferative activity against human DLD1 cells after 72 hrs by Celltiter-Glo luminescent cell viability assay. It is filed as functional, cell-based. Particulars: DLD-1, 72 h.
Assay [17] can be described thus: Antiproliferative activity against human UACC62 cells after 72 hrs by Celltiter-Glo luminescent cell viability assay. Format: functional, cell-based. The conditions noted are these: UACC-62, 72 h.
Assay [18] in a line: Antiproliferative activity against human MIAPaCa2 cells after 72 hrs by Celltiter-Glo luminescent cell viability assay. Format: functional, cell-based. The conditions noted are these: MIA PaCa-2, 72 h.
The next assay relates to A498. Nature of the assay: Antiproliferative activity against human A498 cells after 72 hrs by Celltiter-Glo luminescent cell viability assay. Format: functional, cell-based. Particulars: A498, 72 h.
Assay [19] is described as follows: Antiproliferative activity against human PC3 cells after 72 hrs by Celltiter-Glo luminescent cell viability assay. It is filed as functional, cell-based. Particulars: PC-3, 72 h.
The test system of another assay is A549. Nature of the assay: Antiproliferative activity against human A549 cells after 72 hrs by Celltiter-Glo luminescent cell viability assay. Format: functional, cell-based. The conditions noted are these: A549, 72 h.
Another assay has as its system NCI-H69. Nature of the assay: Antiproliferative activity against human NCI-H69 cells after 72 hrs by Celltiter-Glo luminescent cell viability assay. Format: functional, cell-based. The conditions noted are these: NCI-H69, 72 h.
The next assay concerns RL. Nature of the assay: Antiproliferative activity against human RL cells after 72 hrs by Celltiter-Glo luminescent cell viability assay. Format: functional, cell-based.
Assay [20] concerns Klebsiella aerogenes. Nature of the assay: Potency index, ratio of Ac-GF-Tic-Oic-GK-Tic-Oic-GF-Tic-Oic-GK-Tic-KKKK-CONH2 MIC to compound MIC for carbapenem-resistant Enterobacter aerogenes NCDC819-56 ATCC 13048. Format: functional. The conditions noted are these: pooled result: one value given for 3 cell lines, strains, targets or settings.
The subject of assay [21] is Acinetobacter baumannii. Nature of the assay: Potency index, ratio of Ac-GF-Tic-Oic-GK-Tic-Oic-GF-Tic-Oic-GK-Tic-KKKK-CONH2 MIC to compound MIC for Acinetobacter baumannii B5W71 ATCC 15149. It is filed as functional.
For assay [22], the system named is Pseudomonas aeruginosa. Nature of the assay: Potency index, ratio of Ac-GF-Tic-Oic-GK-Tic-Oic-GF-Tic-Oic-GK-Tic-KKKK-CONH2 MIC to compound MIC for Pseudomonas aeruginosa Boston 41501 ATCC 27853. It is filed as functional.
Assay [23] concerns Salmonella enterica subsp. enterica serovar Typhimurium str. LT2. The assay is described as §1. Format: functional.

pIC50: −log10 of the molar value. Converted amounts (≈) assume the structure as drawn.

What is called MIC is the lowest concentration found to suppress growth. One may read the pIC50 as the IC50 on a negative log10 scale, so that one unit is a factor of ten. Read a high pIC50 as a low IC50. For the compound `CC(=O)NCC(=O)N[C@@H](Cc1ccccc1)C(=O)NC1(C(=O)NCC(=O)N2Cc3ccccc3CC2C(=O)N[C@H](CCCCN)C(=O)NC2(C(=O)NCC(=O)N3Cc4ccccc4CC3C(=O)N[C@H](Cc3ccccc3)C(=O)NC3(C(=O)NCC(=O)N4Cc5ccccc5CC4C(=O)NCC(=O)N[C@H](CCCCN)C(=O)N4Cc5ccccc5CC4C(=O)N[C@H](CCCCN)C(=O)N[C@H](CCCCN)C(=O)N[C@H](CCCCN)C(=O)N[C@H](CCCCN)C(N)=O)CCCCC3)CCCCC2)CCCCC1` (stereo partly drawn), the Ratio is given as 4.3 with Enterococcus faecium, 1.075 in the assay with Klebsiella aerogenes [20], 17.2 with Acinetobacter baumannii [21] and 0.2582 in the assay on Pseudomonas aeruginosa [22]. Also, the MIC was more than 43 µM with Klebsiella aerogenes [1]; more than 45 µM in the assay on Acinetobacter baumannii [2]; 5.17 µM (≈ 12.5 µg/mL) in [3]; 10.3 µM (≈ 25 µg/mL) with Pseudomonas aeruginosa [4]; more than 43 µM in assay [5]; more than 43 µM against Enterococcus faecalis. The MIC against Staphylococcus aureus [6] was more than 43 µM; in assay [7] it was 2.58 µM (≈ 6.24 µg/mL); against Staphylococcus aureus [8], more than 43 µM; in the assay with Streptococcus pneumoniae, more than 43 µM; against Neisseria gonorrhoeae, 41.3 µM (≈ 100 µg/mL); in [9], 10.3 µM (≈ 25 µg/mL). Besides, the MIC in [10] is 20.7 µM (≈ 50 µg/mL); in assay [11] it was more than 43 µM; in [12], more than 43 µM; in [13] it was 10.3 µM (≈ 25 µg/mL). The pIC50 (with CFPAC-1; with MCF7; in [14]; in assay [15]; in assay [16]; in [17]) was less than 5.12 in each case. Moreover, the pIC50 in assay [18] was less than 5.12; in the assay with A498, less than 5.12; in assay [19] it was less than 5.12; in the assay on A549, less than 5.12; in the assay with NCI-H69, less than 5.12; in the assay with RL, 5.17.

For the compound GENTAMICIN, the MIC turned out to be 1.04 µM against Klebsiella aerogenes [1], 2.09 µM in the assay with Acinetobacter baumannii [2], 2.09 µM in [23] and 8.3 µM in the assay with Pseudomonas aeruginosa [4].

Consider `CC(=O)NCC(=O)N[C@H](Cc1ccccc1)C(=O)NC1(C(=O)NCC(=O)N2C(C(=O)N[C@@H](CCCCN)C(=O)NC3(C(=O)NCC(=O)N4C(C(=O)N[C@@H](Cc5ccccc5)C(=O)NC5(C(=O)NCC(=O)N6C(C(=O)NCC(=O)N[C@@H](CCCCN)C(=O)N7C(C(=O)N[C@H](CCCCN)C(=O)N[C@H](CCCCN)C(=O)N[C@H](CCCCN)C(=O)N[C@H](CCCCN)C(N)=O)CC8CCCCC87)CC7CCCCC76)CCCCC5)CC5CCCCC54)CCCCC3)CC3CCCCC32)CCCCC1` (stereo in doubt), for which the Ratio is recorded as 4.2 in the assay on Enterococcus faecium, 1.05 in the assay with Klebsiella aerogenes [20], 8.372 with Acinetobacter baumannii [21] and 0.5232 in the assay on Pseudomonas aeruginosa [22]. Further, the MIC in the assay on Klebsiella aerogenes [1] is more than 42 µM; against Acinetobacter baumannii [2] it was 20.9 µM (≈ 50 µg/mL); in [3] it was 41.9 µM (≈ 100 µg/mL); in the assay with Pseudomonas aeruginosa [4], 20.9 µM (≈ 50 µg/mL); in [5], more than 42 µM; with Enterococcus faecalis, more than 42 µM. For the same compound, the MIC is more than 42 µM against Staphylococcus aureus [6]; 2.62 µM (≈ 6.26 µg/mL) in assay [7]; more than 42 µM against Staphylococcus aureus [8]; more than 42 µM against Streptococcus pneumoniae; 20.9 µM (≈ 50 µg/mL) against Neisseria gonorrhoeae; 20.9 µM (≈ 50 µg/mL) in assay [9]. The MIC in assay [10] is 20.9 µM (≈ 50 µg/mL); in assay [11], more than 42 µM; in assay [12], more than 42 µM; in [13], 20.9 µM (≈ 50 µg/mL). Further, the pIC50 (in the assay on CFPAC-1; in the assay with MCF7; in assay [14]; in assay [15]; in assay [16]; in assay [17]) was less than 5.12 throughout. The pIC50 in [18] was less than 5.12; in the assay with A498, less than 5.12; in [19], less than 5.12; in the assay with A549, less than 5.12; in the assay on NCI-H69, less than 5.12; with RL it was 5.17.

These data come from ChEMBL document CHEMBL3822432, “Antibacterial and anticancer activity of a series of novel peptides incorporating cyclic tetra-substituted C(α) amino acids” (Bioorg Med Chem, 2016).
